Measured values reported in US8906414B1, “Methods and compositions for improving bioavailability of epigallocatechin gallate (EGCG)” (University of South Florida, priority 2009, dated 2014).

Key:
[1] = system: SweAPP N2a cells; conditions: free EGCG (Rezai-Zadeh et al., 2005); cited from earlier work
[2] = oral dose of 800 mg/70 kg/day; cited from earlier work
[3] = Total EGCG concentration in blood and brain tissues after 4 weeks of treatment; type: in vivo; conditions: after 4 weeks of treatment at a maximum dose (300 mg/kg)
[4] = Water solubility of EGCG; type: physicochemical

total EGCG concentration in blood and brain tissues [3]: 1000 to 1300 ng/mL
water solubility [4]: poorly water soluble
Structure (SMILES): O=C(O[C@@H]1Cc2c(O)cc(O)cc2O[C@@H]1c1cc(O)c(O)c(O)c1)c1cc(O)c(O)c(O)c1 [EGCG, (−)-epigallocatechin-3-gallate]
EGCG concentration necessary for promoting APP α-secretase cleavage [1]: 1000 to 2000 ng/mL
EGCG in human plasma [2]: approximately 400 ng/ml
